Measurements: patent US20220119354A1, “DIAMINO-SUBSTITUTED PYRIDINES AND PYRIMIDINES AS HERBICIDES” (FMC Corporation, priority 2019, published 2022)

Legend:
Format in all cases: in vivo
[1] = test system: pigweed (Amaranthus retroflexus); assay: Test A preemergence, pigweed; conditions: 0 to 100 scale
In short: (§1)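 Post: seedlings 2–10 cm, 1–2 leaves, foliar spray. Pre: soil spray after sowing in loam/sand blend. Both formulated in non-phytotoxic solvent with surfactant; injury scored visually 0–100 after ~10 d.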

[2] = test system: kochia (Kochia scoparia); assay: Test A preemergence, kochia; conditions: 0 to 100 scale
In short: as §1

[3] = test system: ragweed (common ragweed, Ambrosia elatior); assay: Test A postemergence, ragweed; conditions: Ambrosia artemisiifolia, post-emergence, 240 h, 0 to 100 scale, read-out: Plant response rating, Ragweed
In short: as §1

[4] = test system: barnyardgrass (Echinochloa crus-galli); assay: Test A postemergence, barnyardgrass; conditions: Echinochloa crus-galli, post-emergence, 240 h, 0 to 100 scale, read-out: Plant response rating, Barnyardgrass
In short: as §1

[5] = test system: wheat (Triticum aestivum); assay: Test A postemergence, wheat; conditions: Triticum aestivum, post-emergence, 240 h, 0 to 100 scale, read-out: Plant response rating, Wheat
In short: as §1

[6] = test system: barnyardgrass (Echinochloa crus-galli); assay: Test A preemergence, barnyardgrass; conditions: 0 to 100 scale
In short: as §1

[7] = test system: barnyardgrass (Echinochloa crus-galli); assay: Test B flooded paddy test, barnyardgrass; conditions: Echinochloa crus-galli, 360 h; Flood, 250 g ai/ha, applied to paddy water, 2-leaf stage, visual evaluation after 13 to 15 d; read-out: Plant response rating, Barnyardgrass (0 to 100 scale, 0 is no effect, 100 is complete control)
In short: (§2)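 Each response is a visual 0–100 rating made against untreated controls, where 0 is no effect and 100 is complete control; a dash marks no result. Compound was dosed into 3 cm paddy water over 2-leaf plants, assessed after 13 to 15 d.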

[8] = test system: kochia (Kochia scoparia); assay: Test A postemergence, kochia; conditions: Bassia scoparia, post-emergence, 240 h, 0 to 100 scale, read-out: Plant response rating, Kochia
In short: as §1

[9] = test system: ragweed (common ragweed, Ambrosia elatior); assay: Test A preemergence, ragweed; conditions: 0 to 100 scale
In short: as §1

[10] = test system: corn (Zea mays); assay: Test A postemergence, corn; conditions: Zea mays, post-emergence, 240 h, 0 to 100 scale
In short: as §1

[11] = test system: foxtail, giant (Setaria faberii); assay: Test A preemergence, giant foxtail; conditions: 0 to 100 scale
In short: as §1

[12] = test system: pigweed (Amaranthus retroflexus); assay: Test A postemergence, pigweed; conditions: Amaranthus retroflexus, post-emergence, 240 h, 0 to 100 scale, read-out: Plant response rating, Pigweed
In short: as §1

[13] = test system: foxtail, giant (Setaria faberii); assay: Test A postemergence, giant foxtail; conditions: Setaria faberi, post-emergence, 240 h, 0 to 100 scale, read-out: Plant response rating, Foxtail, Giant
In short: as §1

[14] = test system: ducksalad (Heteranthera limosa); assay: Test B flooded paddy test, ducksalad; conditions: Heteranthera limosa, 360 h; Flood, 250 g ai/ha, applied to paddy water, 2-leaf stage, visual evaluation after 13 to 15 d; read-out: Plant response rating, Ducksalad (0 to 100 scale, 0 is no effect, 100 is complete control)
In short: as §2

[15] = test system: galium (catchweed bedstraw, Galium aparine); assay: Test A postemergence, galium; conditions: Galium, post-emergence, 240 h, 0 to 100 scale, read-out: Plant response rating, Galium
In short: as §1

[16] = test system: ryegrass, Italian (Lolium multiflorum); assay: Test A postemergence, Italian ryegrass; conditions: Lolium multiflorum, post-emergence, 240 h, 0 to 100 scale, read-out: Plant response rating, Ryegrass, Italian
In short: as §1

[17] = test system: blackgrass (Alopecurus myosuroides); assay: Test A postemergence, blackgrass; conditions: Alopecurus myosuroides, post-emergence, 240 h, 0 to 100 scale, read-out: Plant response rating, Blackgrass
In short: as §1

[18] = test system: rice (Oryza sativa); assay: Test B flooded paddy test, rice; conditions: Oryza sativa, 360 h; Flood, 250 g ai/ha, applied to paddy water, 2-leaf stage, visual evaluation after 13 to 15 d; read-out: Plant response rating, Rice (0 to 100 scale, 0 is no effect, 100 is complete control)
In short: as §2

[19] = test system: sedge, umbrella (small-flower umbrella sedge, Cyperus difformis); assay: Test B flooded paddy test, umbrella sedge; conditions: Cyperus difformis, 360 h; Flood, 250 g ai/ha, applied to paddy water, 2-leaf stage, visual evaluation after 13 to 15 d; read-out: Plant response rating, Sedge, Umbrella (0 to 100 scale, 0 is no effect, 100 is complete control)
In short: as §2

[20] = test system: ryegrass, Italian (Lolium multiflorum); assay: Test A preemergence, Italian ryegrass; conditions: 0 to 100 scale
In short: as §1

Compound: C[C@@H](Nc1ncc(C(F)(F)F)c(N)n1)c1cc2ccccc2s1 [Compound 4, N2-[(1R)-1-benzo[b]thien-2-ylethyl]-5-(trifluoromethyl)-2,4-pyrimidinediamine]
- Plant response rating, Pigweed ([1]; 125 g ai/ha): 100
- Plant response rating, Pigweed ([1]; 500 g ai/ha): 100
- Plant response rating, Kochia ([2]; 125 g ai/ha): 100
- Plant response rating, Kochia ([2]; 500 g ai/ha): 100
- pest or weed control at 125 g/ha ([3]; 125 g ai/ha): 80%
- pest or weed control at 500 g/ha ([3]; 500 g ai/ha): 100%
- pest or weed control at 125 g/ha ([4]; 125 g ai/ha): 20%
- pest or weed control at 500 g/ha ([4]; 500 g ai/ha): 60%
- plant injury at 125 g/ha ([5]; 125 g ai/ha): 0%
- plant injury at 500 g/ha ([5]; 500 g ai/ha): 0%
- Plant response rating, Barnyardgrass ([6]; 125 g ai/ha): 90
- Plant response rating, Barnyardgrass ([6]; 500 g ai/ha): 100
- pest or weed control at 250 g/ha [7]: 95%
- pest or weed control at 125 g/ha ([8]; 125 g ai/ha): 90%
- pest or weed control at 500 g/ha ([8]; 500 g ai/ha): 100%
- Plant response rating, Ragweed ([9]; 125 g ai/ha): 100
- Plant response rating, Ragweed ([9]; 500 g ai/ha): 100
- Corn plant response rating (crop injury, 0 = no effect, 100 = complete kill) at 125 g/ha ([10]; 125 g ai/ha): 0%
- Corn plant response rating (crop injury, 0 = no effect, 100 = complete kill) at 500 g/ha ([10]; 500 g ai/ha): 30%
- Plant response rating, Foxtail, Giant ([11]; 125 g ai/ha): 90
- Plant response rating, Foxtail, Giant ([11]; 500 g ai/ha): 100
- pest or weed control at 125 g/ha ([12]; 125 g ai/ha): 100%
- pest or weed control at 500 g/ha ([12]; 500 g ai/ha): 100%
- pest or weed control at 125 g/ha ([13]; 125 g ai/ha): 30%
- pest or weed control at 500 g/ha ([13]; 500 g ai/ha): 70%
- pest or weed control at 250 g/ha [14]: 45%
- pest or weed control at 125 g/ha ([15]; 125 g ai/ha): 80%
- pest or weed control at 500 g/ha ([15]; 500 g ai/ha): 80%
- pest or weed control at 125 g/ha ([16]; 125 g ai/ha): 0%
- pest or weed control at 500 g/ha ([16]; 500 g ai/ha): 20%
- pest or weed control at 125 g/ha ([17]; 125 g ai/ha): 0%
- pest or weed control at 500 g/ha ([17]; 500 g ai/ha): 60%
- plant injury at 250 g/ha [18]: 0%
- pest or weed control at 250 g/ha [19]: 100%
- Plant response rating, Ryegrass, Italian ([20]; 125 g ai/ha): 80
- Plant response rating, Ryegrass, Italian ([20]; 500 g ai/ha): 90
